The record followed here is a melting point compilation (Tetko et al.; mined from patent text by program, amines drawn as free bases though some values may be those of a salt).

In general, melting point refers to the temperature of the solid-liquid transition. `CCOC(=O)c1c(CN(CC)CC)nc2cc(OC)c(OC)cc2c1-c1ccc(F)cc1` showed a melting point of 102 to 103 °C.

Take `CCOC(=O)c1[nH]cc2c1NC1=C(C(=O)CCC1)C2c1ccc(Sc2nc3cc(Cl)c(Cl)cc3[nH]2)o1` (centres undefined): the melting point worked out at 180 °C.

Compound `CC(=O)OC1CSC(Oc2ccc(-c3ccco3)nc2)C(OC(C)=O)C1OC(C)=O` (centres undefined) gave a melting point of 133 °C. As for `NCC1Cc2c(C(F)(F)F)ccc(Cl)c2O1` (centres undefined), the figure is > 250 °C; as for `O=C1NCN(c2ccc(F)cc2)C12CCN(C1CCC(c3ccc(F)cc3)(c3ccc(F)cc3)CC1)CC2`, 237 to 240 °C; as for `Cc1ccc(C2c3c(C)c(N4CCN(c5ccccc5[N+](=O)[O-])CC4)c(C)c(C)c3OC2(C)C)cc1` (centres undefined), 178 to 180 °C.

Compound `O=C(Nc1cccc(S(=O)(=O)NCc2ccncc2)c1)c1cnn2c(C(F)(F)F)cc(-c3ccc(C(F)(F)F)cc3)nc12` registered a melting point of 251 °C. The compound `COc1ccc(CCCC2SC(=O)NC2=O)c2ccc(=O)n(C)c12` (centres undefined) returned a melting point of 172 to 175 °C. For `O=C(NCC1CC(=O)N(Cc2ccccc2)C1)Nc1ccc(Cl)cc1` (centres undefined) the value was 139 to 140 °C; for `O=C1NCCc2ccc(OCCCN3CCCN(c4cccc(Cl)c4Cl)CC3)cc21`, 116 to 117 °C; for `CCOc1cc(CF)nc2nc(S(=O)(=O)Nc3c(Cl)ccc(C)c3Cl)nn12`, 197 to 200 °C. Take `COCCS(=O)(=O)c1ccccc1S(=O)(=O)NC(=O)Nc1nc(OC)cc(OC)n1`: the melting point lay in the range of 187 to 192 °C. As for `O=C(O)C1SC(C23CC4CC(CC(C4)C2)C3)=NN1C(=O)CCS` (centres undefined), the figure is 183 to 184 °C. Compound `CCC(C=O)c1ccc(S(C)(=O)=O)cc1` (centres undefined) had a melting point of 202 to 204 °C. `COC(=O)c1nc(-c2ccccc2)c(-c2ccc(=O)n(C(C)C)n2)cc1C#N`: the melting point was in the range of 136 to 138 °C. For `Nc1nc2ccccc2c2c1nc(CO)n2Cc1cc(-c2ccc(F)cc2)no1` the value was 262 to 263 °C; for `O=C(O)COc1cccc2c1Cc1sc(SCC=Cc3ccccc3)nc1-2`, 172 to 174 °C. For `O=C(O)c1cc(OCc2ccccc2)c(OCc2ccccc2)cn1` the value was 204 °C; for `CS(=O)(=O)c1ccc(Oc2cc(OC3CCOCC3)c3[nH]c(C4=NCC(CC(=O)NCCO)S4)cc3c2)cn1` (centres undefined), 157 to 158 °C; for `CCOC(=O)/C(=N\O)N1N=C(N)C(Cc2ccccc2)C1=O` (centres undefined), 102 to 108 °C. As for `O=C(Cn1c2c(c3ccccc31)CCNCC2)Nc1cccnc1`, the figure is 138 to 140 °C.

`C=CCn1c(CSC#N)nc2ccccc2c1=O` showed a melting point of 73 to 76 °C. As for `O=S(=O)(Nc1cnc(-n2cnnn2)nc1NCc1ccccc1)c1ccc(Br)cc1`, the figure is 184 °C. As for `CN1C(=O)N(c2c(Cl)cccc2Cl)Cc2cnc(Nc3ccc(CCO)cc3)nc21`, the figure is 148 to 151 °C.

Turning to `CCOC(=O)C(=Cc1ccc(NC)cc1[N+](=O)[O-])C(=O)OCC`, the melting point was in the range of 113 to 114 °C.

With `O=C(O)c1cc(=O)c2c(O)cccc2[nH]1`, the melting point lay in the range of 298 to 301 °C.

As for `Cn1cc(CC(SSC(Cc2cn(C)c3ccccc23)C(=O)O)C(=O)O)c2ccccc21` (centres undefined), the melting point fell in the range of 158 to 160 °C. With `CNC(=O)CCSCc1csc(NC(N)=NCC(F)(F)F)n1`, the melting point was in the range of 152 to 154 °C. `Cc1ccccc1-c1cc(N2CCN(C(=O)CO)CC2)ncc1C(=O)N(C)Cc1cc(C(F)(F)F)cc(C(F)(F)F)c1` gave a melting point of 91 to 93 °C. As for `COC(=O)c1cccc(NC(=O)CC(=O)c2ccccc2)c1C(=O)OC`, the figure is 100 to 103 °C; as for `O=C(O)c1cccc(=O)n1OCc1ccccc1`, 176 to 177 °C; as for `Cc1c(C(=O)O)c[nH]c1C(=O)c1ccccc1`, 241 to 243 °C.

As for `COc1cc2c(=O)ccn(C)c2cc1OC`, the melting point was 169 to 173 °C. As for `O=c1oc(CO)nn1Cc1ccccc1`, the figure is 54 °C; as for `CNc1c(F)cc2c(=O)c(C(=O)O)cn(-c3ccc(F)c(OC)c3)c2c1Cl`, 250 to 253 °C; as for `CCCC(=O)Nc1ccc(C(=O)Nc2ccc3cc(CN4CCCC4)cnc3c2C)cc1`, 192 to 194 °C. For `COc1ccc(OCC(O)CO)cc1` (centres undefined) the value was 73 to 74 °C. For `COC(=O)c1c(C)nc2c(c(-c3ccccc3)nn2C)c1-c1ccc(F)cc1` the value was 142 to 144 °C; for `CC(Oc1ccc(Oc2ccc(C(F)(F)F)cc2Cl)cc1)C(=O)O` (centres undefined), 90 to 92 °C; for `S=c1[nH]c2ccc(-c3cccc(Cl)c3)cc2n1Cc1ccccc1`, 211 to 212 °C. `CC(=N)Nc1cccc([N+](=O)[O-])c1`: the melting point was 226 to 228 °C. As for `O=C(O)CCC(=NO)c1ccc(-c2ccc(Cl)cc2)cc1`, the figure is 155 to 157 °C; as for `C=Cc1c(NCc2ccco2)nc(C2CC2)nc1C(=O)OC`, 85 to 86 °C. For `COC(=O)c1ccccc1S(=O)(=O)NC(=O)c1cc(C)n(C)n1` the value was 176 to 177 °C. In turn, `COCCNc1sc(-c2cc[nH]n2)c2c1C(=O)CC(C)(C)C2` yielded a melting point of 171 to 173 °C. As for `CC1(c2cccc(N)c2)OCCO1`, the figure is 75 to 77 °C; as for `CC1(C2CCCC2)Cc2cc(O)c(Cl)c(Cl)c2C1=O` (centres undefined), 190 to 194 °C; as for `COc1ccc2c(c1)NC(=O)C(CCCN1CCN(c3ccc(F)cc3)CC1)O2` (centres undefined), 153 to 154 °C. As for `CC1(C)CC(O)CC(C)(C)N1N=Nc1ccccc1`, the figure is 68 to 70 °C; as for `CC(C(=O)O)c1ccc(-c2ccccc2F)c(F)c1` (centres undefined), 120 to 123 °C. On to `CC(C)c1cccc(C(C)C)c1NC(=O)CNC(c1ccccc1)c1ccc(C(=O)O)cc1` (centres undefined), for which the melting point lay within 245 to 246 °C. For `CC(C)(C)OC(=O)N1CCC(c2ccc(COc3ccc([N+](=O)[O-])cc3)nc2)CC1` the value was 149 to 150 °C. In turn, `O=C(c1ccc([N+](=O)[O-])cc1)c1ccc2c(n1)C(O)CCCN2` (centres undefined) came in with a melting point of 182 to 185 °C.

Regarding `NC(=O)COCCN1CCN2c3ccccc3Cc3ccccc3C2C1` (centres undefined), the melting point lay in the range of 66 to 68 °C. Compound `NN1CCC[C@H]1C(=O)O` displayed a melting point of 153 to 154 °C. As for `O=C(Cc1ccccc1)N[C@H](Cc1ccc(C(F)(F)F)cc1)[C@@H](O)c1ccc(F)cc1` (racemic), the figure is 173 to 174 °C; as for `Cc1cccc(NC(=O)NC2N=C(c3ccccc3F)c3cccc(C)c3N(CC(=O)c3ccccc3C)C2=O)c1` (centres undefined), 190 to 196 °C. As for `CC(C)(C)OC(=O)N1CCN(c2cccc3c(Sc4ccccc4)c[nH]c23)CC1`, the figure is 165 to 166 °C; as for `CC(Sc1nc(N)c(Br)c(Cl)n1)c1cc2ccccc2cn1` (centres undefined), 173 to 174 °C; as for `CC1OC(=Nc2nccs2)c2c1nc1ccccc1c2O` (centres undefined), > 270 °C. `COc1cc(NC(=O)OC(C)(C)C)ccc1OCCCN1CCN(c2ccccc2)CC1` came in with a melting point of 125 to 126 °C.

Turning to `C=CCNc1nc(NCC=C)c2scc(Br)c2n1`, the melting point fell in the range of 87 to 88 °C. As for `CC(c1ccccc1)N1C(=O)NC(=O)C1O` (centres undefined), the figure is 139 to 140 °C. `COc1cc(C(=O)O)ccc1OCCCCCOc1ccc(C#N)cc1` yielded a melting point of 159 to 161 °C. As for `CC(C)c1ccc(C2(OC(=O)N(C)C)C(=O)c3ccccc3C2=O)c(O)c1`, the figure is 114 to 118 °C; as for `COC(=O)[C@H](Cc1c[nH]cn1)NC(=O)[C@H](CCC(N)=O)NC(=O)OCc1ccccc1`, 186 to 188 °C; as for `CSC(=C[N+](=O)[O-])Nc1ccc(Cl)nc1`, 169 to 171 °C. As for `CCCCCCCCCCCCc1cnn(C(C(=O)O)c2ccccc2)n1` (centres undefined), the figure is 94 to 98 °C; as for `Clc1nc(N2CCCCC2)c2nc(Cl)nc(N3CCCCC3)c2n1`, 240 to 241 °C; as for `COc1cc(NC(=O)/C=C/c2ccc(C(C)(C)C)cc2)ccc1O`, 203 to 204 °C. As for `N#CCc1c(C(F)(F)F)cccc1C(F)(F)F`, the figure is 84.5 to 86 °C; as for `CCC1(OC)CCc2c(C)c(O)c(C)c(C)c2O1` (centres undefined), 96.5 to 98.5 °C. The compound `COc1cccc(N(C)C(=O)Oc2ccc(C(C)C)cc2)n1` showed a melting point of 64 to 65 °C. Consider `Oc1cc2ccc(Cc3ccccc3)cc2cc1O`, for which the melting point was in the range of 177 to 187 °C. `COc1ccccc1N1CCN(C2CCN(c3noc4ccccc34)CC2)CC1` returned a melting point of 71 to 73 °C. As for `C=CCOc1ccc(OCc2ccccc2)cc1`, the figure is 56 to 57 °C; as for `CSc1ccc(C(=O)O)c([N+](=O)[O-])c1`, 165 to 168 °C. For `CCCc1c(C(C)C)nc(C(C)C)c(CO)c1-c1ccc(F)cc1O` the value was 138 to 141 °C. For `Cn1c(=O)n(C)c2cc3c(N4CCN(C(=O)Nc5ccc(Oc6ccccc6)cc5)CC4)ncnc3cc21` the value was 250 to 255 °C; for `C[Si](C)(C)C#CC1(O)CCCCC1`, 72 to 73 °C; for `OC1(c2ccc(Cl)c(Cl)c2)c2ccccc2C2=NCCN21` (centres undefined), 203 to 205 °C. Turning to `CC1(c2ccc3cc(C(O)c4cccnc4)ccc3c2)OCCO1` (centres undefined), the melting point is 154 to 156 °C.

As to `CC(C)(C)OC(=O)c1ncn2c1[C@@H]1CCCN1C(=O)c1cc(Cl)ccc1-2`, the melting point is 157 to 158 °C. For `Cc1nc(-n2nnc(C(=O)NCc3ccccc3)c2C)sc1C(=O)NCc1ccccc1` the value was 183 to 186 °C. For `Cc1cc(-c2cnn3c(C(F)(F)F)cc(-c4ccc(Cl)c(Cl)c4)nc23)cc(C)n1` the value was 281 °C; for `CCCCN=C(N)Nc1nc(C)cc(C)n1`, 185 °C. As for `COc1ccc2c(c1)C(C)(CC#N)C(=O)N2C` (centres undefined), the figure is 75.5 to 76 °C; as for `O=C1CCC(=O)N1Cc1nc2sc3c(c2c(-c2ccc(O)cc2)c1Cl)CCNC3`, 286 to 287 °C; as for `C#Cc1cccc(Nc2nc(Nc3cccc(C#C)c3)nc(-c3ccccc3)n2)c1`, 210 °C.
